Results reported in patent publication US20060100199A1, “Novel condensed imidazole derivatives” (priority 2003, published 2006).
Where a name gives a salt, the structure may show the parent alone.

Tests used:
[1] = target: T1, Porcine kidney-derived DPP-IV (Sus scrofa, UniProt P22411); test: DPPIV-inhibiting activity assay; type: biochemical; conditions: Gly-Pro-p-nitroanilide 0.33 mM, reaction time 20 minutes, absorbance at 405 nm
T1 construct: Porcine kidney-derived DPP-IV was dissolved in a reaction buffer; from tissue; host or cells: porcine kidney
Description: DPPIV-Inhibiting Activity Assay
Porcine kidney-derived DPP-IV was dissolved in a reaction buffer (50 mM Tris-HCl (pH 7.4)/0.1% BSA) at a concentration of 10 mg/ml. After 110 μl of this solution had been combined with 15 μl of an agent, the mixture was incubated at room temperature for 20 minutes. 25 μl of 2 mM Gly-Pro-p-nitroanilide was added (to a final concentration of 0.33 mM) to the solution to initiate the enzyme reaction. The reaction time was 20 minutes. 25 μl of 1N phosphoric acid solution was added to the reaction solution to quench the reaction.

male C57BL/6N mice = test: Acceptable timing of administration in in vivo test; conditions: oral, simultaneously with vs one hour before glucose loading (2 g/kg); improvement factor for glucose tolerance compared
Description: Acceptable Timing of Administration in in vivo Test
The respective tests described below were carried out in combination with the in vivo test (administration before 0.5 hour) as described in Assay Example 2:
1. A test compound is administered simultaneously with glucose loading (2 g/kg) (the test compound is suspended in an aqueous solution of 0.5% methyl cellulose; the solution is combined with an equal volume of a glucose solution; and the mixture is administered orally at a dose of 10 ml/kg);
2. A test compound is administered one hour before glucose loading (2 g/kg) (the test compound suspended in an aqueous solution of 0.5% methyl cellulose is administered orally one hour before the oral administration of the glucose solution; each is given orally at a dose of 10 ml/kg).
The improvement factor for glucose tolerance is estimated in each test.

fasted male Wistar rats = test: Effect on the blood glucose level of fasted male Wistar rats (in vivo test); conditions: oral dose of 10-30 (mg/kg); 0.5, 1 and 3 hours after administration; compared with control group treated with the medium alone
Description: Purpose: Effect of a Test Compound on the Blood Glucose Level of Fasted Male Wistar Rats
Animal: male Wistar rats (purchased from Charles River Japan, Inc.)
A test compound was suspended in 0.5% methyl cellulose (MC) solution and administered orally at a dose of 5 mL/kg. The control group was treated with a 0.5% MC solution. The solution was administered orally at a dose of 5 mL/kg.
Immediately before administering a test compound or 0.5% MC solution, and 0.5, 1, and 3 hours after the administration, without anesthetic the caudal vein was lightly cut with a razor blade to let the blood out. 10 μL of blood was collected and combined with 140 μL of 0.6 M perchloric acid solution. The sample was centrifuged at 3000 g at 4° C. for 10 minutes and the resultant supernatant was assayed with the Glucose CII TEST WAKO (Wako Pure Chemical Industries).

CYP1A2 = target: T2, CYP1A2 (Homo sapiens, UniProt P05177); test: Assessment for drug-metabolizing enzyme (cytochrome P450), CYP1A2; type: in vitro ADME; conditions: recombinant P450, fluorescent substrate CEC
T2 construct: purchased GENTEST Corp
T2 sequence (P05177 1-516): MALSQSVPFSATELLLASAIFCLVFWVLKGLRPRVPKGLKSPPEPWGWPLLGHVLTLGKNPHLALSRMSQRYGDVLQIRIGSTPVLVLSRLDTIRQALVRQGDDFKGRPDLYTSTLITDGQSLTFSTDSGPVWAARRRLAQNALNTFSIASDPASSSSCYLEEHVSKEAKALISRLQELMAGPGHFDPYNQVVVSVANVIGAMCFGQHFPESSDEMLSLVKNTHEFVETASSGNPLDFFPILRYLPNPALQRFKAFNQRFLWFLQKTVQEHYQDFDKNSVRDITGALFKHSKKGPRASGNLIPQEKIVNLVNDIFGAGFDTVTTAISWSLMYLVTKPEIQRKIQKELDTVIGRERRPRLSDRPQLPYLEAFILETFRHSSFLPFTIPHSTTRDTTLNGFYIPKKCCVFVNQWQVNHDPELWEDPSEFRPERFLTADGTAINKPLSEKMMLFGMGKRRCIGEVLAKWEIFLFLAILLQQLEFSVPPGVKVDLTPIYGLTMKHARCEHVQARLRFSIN
Description: (§1) <Assessment for Drug-Metabolizing Enzyme (Cytochrome P450)>
(§2) The experimental conditions used are shown below. The fluorescence intensity was determined using a plate reader (CYTO FLUOR Multi-Well Plate Reader Series 4000; PerSeptive Biosystems Corp.). The degree of inhibition was determined as a mean value from nine independent assays […] using as an index the intensity fluorescence emitted from the metabolite of the fluorescent substrate.
(§3) The substrates, metabolites, inhibitors, excitation wavelengths, and fluorescence wavelengths used in the assay are shown in Table 2.

CYP2C9 = target: T3, CYP2C9 (Homo sapiens, UniProt P11712); test: Assessment for drug-metabolizing enzyme (cytochrome P450), CYP2C9; type: in vitro ADME; conditions: recombinant P450, fluorescent substrate MFC
T3 construct: purchased GENTEST Corp
Description: as §1, §2, §3

CYP2C19 = target: T4, CYP2C19 (Homo sapiens, UniProt P33261); test: Assessment for drug-metabolizing enzyme (cytochrome P450), CYP2C19; type: in vitro ADME; conditions: recombinant P450, fluorescent substrate CEC
T4 construct: purchased GENTEST Corp
Description: as §1, §2, §3

CYP2D6 = target: T5, CYP2D6 (Homo sapiens, UniProt P10635); test: Assessment for drug-metabolizing enzyme (cytochrome P450), CYP2D6; type: in vitro ADME; conditions: recombinant P450, fluorescent substrate AMMC
T5 construct: purchased GENTEST Corp
Description: as §1, §2, §3

CYP3A4 = target: T6, CYP3A4 (Homo sapiens, UniProt P08684); test: Assessment for drug-metabolizing enzyme (cytochrome P450), CYP3A4; type: in vitro ADME; conditions: recombinant P450, fluorescent substrate BFC
T6 construct: purchased GENTEST Corp
Description: as §1, §2, §3

hERG channel = target: T7, hERG channel (Homo sapiens, UniProt Q12809); test: Suppression of hERG channel current; type: cell-based; conditions: HEK-293 cells with hERG channel gene (subtype 1), patch clamp, peak tail current at −50 mV
T7 construct: expressed in transfected cells; host or cells: HEK-293 cells (cell line established by the inventors)
Description: <Suppression of hERG Channel Current>
(1) Activity towards inhibiting the hERG channel current was evaluated according to the report Zhou, Z et al, Biophysical Journal, 74(1), 230-241 (1998).
(2) This experiment was carried out using HEK-293 cells into which the hERG channel gene (subtype 1) had been introduced (the cell line was established by the inventors).
(3) One to several days before the experiment, cells were plated on a poly-lysine-coated glass plate. The cells were cultured until the day of the experiment. At the start of the experiment, the cell-seeded glass plate was transferred into a bath for current measurement. The hERG channel current was measured by the voltage clamp method using the patch clamp technique. The current was measured using a current amplifier (Axon Instruments). The current was recorded and analyzed using pCLAMP software (Axon Instruments).
(4) The hERG channel current was induced by applying to the cells a depolarizing pulse from a holding potential of −80 mV to +20 mV for 5 seconds and to −50 mV for 4 seconds, at 20 second intervals. After the current became stable in a control solution, the cells were perfused with solutions containing various concentrations of test compounds.
(5) The amplitude of the hERG channel current was defined as the peak value of the tail current observed upon restoring the potential to −50 mV. The inhibiting effect of a test compound on the hERG channel current (IC50) was estimated based on the change in the peak value of tail current upon addition of the test compound at various concentrations. The peak value of tail current recorded for a normal solution was taken as 100%.

T1 sequence (P22411 whole entry): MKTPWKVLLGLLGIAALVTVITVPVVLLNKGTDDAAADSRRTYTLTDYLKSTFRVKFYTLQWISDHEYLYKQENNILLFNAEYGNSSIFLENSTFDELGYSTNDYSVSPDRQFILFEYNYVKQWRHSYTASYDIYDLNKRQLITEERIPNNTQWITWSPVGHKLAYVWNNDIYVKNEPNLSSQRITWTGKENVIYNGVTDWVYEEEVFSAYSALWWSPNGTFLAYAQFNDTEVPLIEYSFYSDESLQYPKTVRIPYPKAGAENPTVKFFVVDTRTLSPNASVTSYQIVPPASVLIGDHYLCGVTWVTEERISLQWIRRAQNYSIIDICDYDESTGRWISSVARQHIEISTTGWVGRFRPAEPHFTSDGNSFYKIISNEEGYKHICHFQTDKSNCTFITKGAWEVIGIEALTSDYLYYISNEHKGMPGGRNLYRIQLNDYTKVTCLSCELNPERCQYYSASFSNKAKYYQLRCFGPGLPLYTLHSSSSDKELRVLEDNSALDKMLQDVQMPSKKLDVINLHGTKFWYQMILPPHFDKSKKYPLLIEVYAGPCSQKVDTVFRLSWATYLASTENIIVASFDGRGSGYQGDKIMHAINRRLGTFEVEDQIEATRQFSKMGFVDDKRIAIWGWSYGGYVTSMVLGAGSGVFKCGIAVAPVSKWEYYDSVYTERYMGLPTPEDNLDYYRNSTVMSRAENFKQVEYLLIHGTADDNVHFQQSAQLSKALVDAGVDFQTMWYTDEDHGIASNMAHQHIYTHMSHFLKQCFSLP
T7 sequence (Q12809 whole entry): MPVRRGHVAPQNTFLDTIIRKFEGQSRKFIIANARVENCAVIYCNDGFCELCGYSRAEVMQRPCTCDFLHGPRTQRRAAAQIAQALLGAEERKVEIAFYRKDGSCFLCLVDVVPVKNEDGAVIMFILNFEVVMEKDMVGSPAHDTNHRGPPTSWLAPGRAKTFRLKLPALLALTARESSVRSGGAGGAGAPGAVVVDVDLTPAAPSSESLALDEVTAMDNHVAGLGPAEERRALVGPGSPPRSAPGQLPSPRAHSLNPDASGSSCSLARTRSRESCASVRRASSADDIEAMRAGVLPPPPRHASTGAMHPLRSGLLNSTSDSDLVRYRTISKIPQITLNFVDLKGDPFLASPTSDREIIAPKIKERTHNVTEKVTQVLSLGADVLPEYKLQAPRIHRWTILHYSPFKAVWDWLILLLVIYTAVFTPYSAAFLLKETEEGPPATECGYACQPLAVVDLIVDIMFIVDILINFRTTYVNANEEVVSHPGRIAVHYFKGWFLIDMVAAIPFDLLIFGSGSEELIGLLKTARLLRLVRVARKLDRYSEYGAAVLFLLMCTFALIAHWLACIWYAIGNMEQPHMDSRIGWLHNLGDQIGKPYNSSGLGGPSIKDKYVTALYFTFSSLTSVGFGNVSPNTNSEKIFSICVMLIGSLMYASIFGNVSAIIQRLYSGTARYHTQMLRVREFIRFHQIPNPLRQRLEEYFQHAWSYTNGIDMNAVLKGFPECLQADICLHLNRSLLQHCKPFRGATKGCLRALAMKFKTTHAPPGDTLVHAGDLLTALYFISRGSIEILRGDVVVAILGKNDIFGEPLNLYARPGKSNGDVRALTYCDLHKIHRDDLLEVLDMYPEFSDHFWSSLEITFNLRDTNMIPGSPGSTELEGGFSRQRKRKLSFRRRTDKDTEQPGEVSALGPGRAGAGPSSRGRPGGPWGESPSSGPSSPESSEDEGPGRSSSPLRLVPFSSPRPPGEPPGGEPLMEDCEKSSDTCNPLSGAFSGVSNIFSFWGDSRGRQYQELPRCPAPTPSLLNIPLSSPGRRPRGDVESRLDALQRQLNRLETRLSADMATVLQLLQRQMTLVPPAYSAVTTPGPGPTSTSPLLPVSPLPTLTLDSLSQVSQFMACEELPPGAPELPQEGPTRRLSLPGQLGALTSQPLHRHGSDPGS
T3 sequence (P11712 whole entry): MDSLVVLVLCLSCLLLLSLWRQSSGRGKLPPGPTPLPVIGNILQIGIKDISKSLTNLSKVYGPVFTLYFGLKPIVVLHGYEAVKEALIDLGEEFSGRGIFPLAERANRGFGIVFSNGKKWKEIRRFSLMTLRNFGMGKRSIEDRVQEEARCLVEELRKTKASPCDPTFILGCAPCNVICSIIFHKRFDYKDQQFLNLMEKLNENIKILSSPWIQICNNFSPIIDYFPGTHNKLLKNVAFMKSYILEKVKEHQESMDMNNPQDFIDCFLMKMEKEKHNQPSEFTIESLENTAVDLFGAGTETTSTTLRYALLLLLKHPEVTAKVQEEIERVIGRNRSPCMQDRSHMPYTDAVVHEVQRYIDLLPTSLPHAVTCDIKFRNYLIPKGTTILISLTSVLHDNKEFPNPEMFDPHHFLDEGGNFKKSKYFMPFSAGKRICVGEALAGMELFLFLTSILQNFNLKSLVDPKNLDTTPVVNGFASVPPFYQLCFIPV
T6 sequence (P08684 whole entry): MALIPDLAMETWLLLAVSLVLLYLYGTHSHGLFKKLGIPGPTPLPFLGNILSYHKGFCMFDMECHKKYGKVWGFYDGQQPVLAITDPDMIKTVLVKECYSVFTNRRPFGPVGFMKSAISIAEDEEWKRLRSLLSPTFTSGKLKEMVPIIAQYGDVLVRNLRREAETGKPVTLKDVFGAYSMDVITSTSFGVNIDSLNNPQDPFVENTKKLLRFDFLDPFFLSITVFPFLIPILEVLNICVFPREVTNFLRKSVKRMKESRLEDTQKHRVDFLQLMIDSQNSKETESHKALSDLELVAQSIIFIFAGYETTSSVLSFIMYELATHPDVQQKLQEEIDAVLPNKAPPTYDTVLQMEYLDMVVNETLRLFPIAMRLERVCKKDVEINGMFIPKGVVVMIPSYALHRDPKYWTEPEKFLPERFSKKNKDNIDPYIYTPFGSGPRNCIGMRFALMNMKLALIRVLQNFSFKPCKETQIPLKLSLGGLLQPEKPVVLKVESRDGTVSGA
T5 sequence (P10635 whole entry): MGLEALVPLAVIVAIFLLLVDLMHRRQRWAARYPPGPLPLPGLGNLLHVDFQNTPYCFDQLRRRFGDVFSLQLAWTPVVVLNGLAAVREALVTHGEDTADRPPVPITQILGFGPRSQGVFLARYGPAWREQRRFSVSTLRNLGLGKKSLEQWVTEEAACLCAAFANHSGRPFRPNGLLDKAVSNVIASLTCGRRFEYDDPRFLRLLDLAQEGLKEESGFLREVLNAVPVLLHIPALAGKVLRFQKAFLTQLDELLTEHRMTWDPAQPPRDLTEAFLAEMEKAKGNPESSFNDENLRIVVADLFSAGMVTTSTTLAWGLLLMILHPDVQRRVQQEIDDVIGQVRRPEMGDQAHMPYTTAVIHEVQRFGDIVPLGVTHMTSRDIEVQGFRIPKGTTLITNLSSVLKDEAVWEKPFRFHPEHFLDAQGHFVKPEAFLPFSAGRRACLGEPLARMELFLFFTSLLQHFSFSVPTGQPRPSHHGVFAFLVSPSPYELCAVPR
T4 sequence (P33261 whole entry): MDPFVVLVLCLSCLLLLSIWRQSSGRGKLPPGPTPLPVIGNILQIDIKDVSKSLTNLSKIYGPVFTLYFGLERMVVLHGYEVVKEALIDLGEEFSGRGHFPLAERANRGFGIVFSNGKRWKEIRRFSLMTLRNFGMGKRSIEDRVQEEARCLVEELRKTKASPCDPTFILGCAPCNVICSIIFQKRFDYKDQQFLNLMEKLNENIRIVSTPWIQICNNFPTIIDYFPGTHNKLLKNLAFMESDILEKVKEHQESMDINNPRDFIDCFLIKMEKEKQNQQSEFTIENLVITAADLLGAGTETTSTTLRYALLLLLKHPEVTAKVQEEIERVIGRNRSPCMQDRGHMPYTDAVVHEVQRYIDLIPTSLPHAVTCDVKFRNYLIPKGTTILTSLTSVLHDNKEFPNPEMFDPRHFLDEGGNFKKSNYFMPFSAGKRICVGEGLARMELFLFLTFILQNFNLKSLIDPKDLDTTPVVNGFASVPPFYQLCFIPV

Structure (SMILES) | IC50 [1] | range of acceptable timing of administration (male C57BL/6N mice) | change in the blood glucose level (fasted male Wistar rats) | IC50 (CYP1A2) | IC50 (CYP2C9) | IC50 (CYP2C19) | IC50 (CYP2D6) | IC50 (CYP3A4) | IC50 (hERG channel)
CC#CCn1c(N2CCNCC2)nc2nc(Oc3ccccc3CC(=O)OC)n(C)c(=O)c21 [Example 4, Methyl 2-[7-(2-butynyl)-1-methyl-6-oxo-8-(piperazin-1-yl)-6,7-dihydro-1H-purin-2-yloxy]phenylacetate trifluoroacetate] | 0.211 µM | – | – | – | – | – | – | – | –
CC#CCn1c(N2CCNCC2)nc2nc(C#N)n(C)c(=O)c21.O=C(O)C(F)(F)F [Example 82, 7-(2-Butynyl)-2-cyano-1-methyl-8-(piperazin-1-yl)-1,7-dihydropurin-6-one trifluoroacetate] | – | sufficiently wide ranges of acceptable timing of administration | no significant change | ≥ 10 µM | ≥ 10 µM | ≥ 10 µM | ≥ 10 µM | ≥ 10 µM | ≥ 30 µM
CC#CCn1c(N2CCNCC2)nc2nc(C(N)=O)n(C)c(=O)c21 [Example 83, 7-(2-Butynyl)-1-methyl-6-oxo-8-(piperazin-1-yl)-6,7-dihydro-1H-purine-2-carboxamide] | 0.0274 µM | – | – | – | – | – | – | – | –
CC#CCn1c(N2CCNCC2)nc2cnn(C)c(=O)c21 [Example 119, 3-(2-Butynyl)-5-methyl-2-(piperazin-1-yl)-3,5-dihydroimidazo[4,5-d]pyridazin-4-one] | – | sufficiently wide ranges of acceptable timing of administration | no significant change | ≥ 10 µM | ≥ 10 µM | ≥ 10 µM | ≥ 10 µM | ≥ 10 µM | ≥ 30 µM
CC#CCn1c(N2CCCC(N)C2)nc2cnn(C)c(=O)c21.O=C(O)C(F)(F)F (centres unmarked) [Example 120, 2-(3-Aminopiperidin-1-yl)-3-(2-butynyl)-5-methyl-3,5-dihydroimidazo[4,5-d]pyridazin-4-one trifluoroacetate] | – | sufficiently wide ranges of acceptable timing of administration | no significant change | ≥ 10 µM | ≥ 10 µM | ≥ 10 µM | ≥ 10 µM | ≥ 10 µM | ≥ 30 µM
CC#CCn1c(N2CCNCC2)nc2nc(Oc3ccccc3C(N)=O)n(C)c(=O)c21 [Example 122, 2-[7-(2-Butynyl)-1-methyl-6-oxo-8-(piperazin-1-yl)-6,7-dihydro-1H-purin-2-yloxy]benzamide] | 0.0153 µM | sufficiently wide ranges of acceptable timing of administration | no significant change | ≥ 10 µM | ≥ 10 µM | ≥ 10 µM | ≥ 10 µM | ≥ 10 µM | ≥ 30 µM
CC#CCn1c(N2CCNCC2)nc2nc(C#N)n(Cc3ccccc3C#N)c(=O)c21.Cl [Example 229, 7-(2-Butynyl)-1-(2-cyanobenzyl)-6-oxo-8-(piperazin-1-yl)-6,7-dihydro-1H-purine-2-carbonitrile hydrochloride] | – | sufficiently wide ranges of acceptable timing of administration | no significant change | ≥ 10 µM | ≥ 10 µM | ≥ 10 µM | ≥ 10 µM | ≥ 10 µM | ≥ 30 µM
CC#CCn1c(N2CCNCC2)nc2nc(Oc3ccccc3C(N)=O)n(Cc3ccc(C#N)cc3)c(=O)c21 [Example 235, 2-[7-(2-Butynyl)-1-(4-cyanobenzyl)-6-oxo-8-(piperazin-1-yl)-6,7-dihydro-1H-purin-2-yloxy]benzamide trifluoroacetate] | 0.00144 µM | – | – | – | – | – | – | – | –
CC#CCn1c(N2CCNCC2)nc2nc(Oc3ccccc3C(N)=O)n(Cc3cccc(C#N)c3)c(=O)c21 [Example 238, 2-[7-(2-Butynyl)-1-(3-cyanobenzyl)-6-oxo-8-(piperazin-1-yl)-6,7-dihydro-1H-purin-2-yloxy]benzamide trifluoroacetate] | 0.00119 µM | – | – | – | – | – | – | – | –
CC#CCn1c(N2CCNCC2)nc2cnn(Cc3ccccc3C#N)c(=O)c21.O=C(O)C(F)(F)F [Example 267, 2-[3-(2-Butynyl)-4-oxo-2-(piperazin-1-yl)-3,4-dihydroimidazo[4,5-d]pyridazin-5-ylmethyl]benzonitrile trifluoroacetate] | – | sufficiently wide ranges of acceptable timing of administration | no significant change | ≥ 10 µM | ≥ 10 µM | ≥ 10 µM | ≥ 10 µM | ≥ 10 µM | ≥ 30 µM
